Assay results as given in patent US7629156B2, “Ethanol production in fermentation of mixed sugars containing xylose” (E.I. du Pont de Nemours and Company, priority 2006, dated 2009).

Columns and labels:
ZW658 strain [1] = experiment: Flask fermentation of ZW658 on glucose and xylose with various polyols; format: cell-based, Zymomonas mobilis; conditions: 10 mM polyol
Description: (§1) Approximately 1 ml of well mixed sample was obtained from flask or fermentor. First the sample absorbance was measured directly with a spectrophotometer (Amersham Biosciences Ultrospec 3300pro, GE Healthcare, Piscataway, N.J., USA). If the reading was lower than 0.6 unit, no dilution was needed. If the reading was higher than 0.6 unit, the sample was diluted with culture medium until the actual reading was in the range of 0.1 to 0.6 unit. The original OD was calculated from the dilution ratio and the actual reading.
(§2) The analysis of sugars, acetate, ethanol, and other by-products was done with an Agilent 1100 series HPLC and Agilent ChemStation software for LC 3D. The column was BioRad Aminex HPX-87H(HPLC Organic Analysis Column 125-0140) with BioRad Micro-Guard Cartridge Cation-H (125-0129). The operating conditions were:
(§3) Glycerol stock of seed frozen at −80° C. was thawed, then inoculated into sterile culture tubes with mixture of 60 g/L glucose, 20 g/L xylose, 10 g/L yeast extract (YE), 10 g/L KH2PO4, 2 g/L (NH4)2SO4, and 1 g/L MgSO4. Initial pH was adjusted to 5.5 with 4 N KOH. This revival culture was grown statically overnight at 37° C. It was transferred into shake flasks with 75 g/L glucose, 25 g/L xylose, 10 g/L yeast extract (YE), 10 g/L KH2PO4, 2 g/L (NH4)2SO4, and 1 g/L MgSO4. Initial pH was adjusted to 5.5 with 4 N KOH. Growth was monitored by measuring OD600. When the OD reached approximately 5, a certain volume of the seed was withdrawn into a sterile syringe for inoculation.
In five sterilized 125 ml Erlenmeyer culture flasks (Cat. No. 30180-036, VWR International, USA), 10 ml of ZW658 strain seed culture at OD600 of approximately 5 was inoculated into each flask with 100 ml of aqueous solution containing 100 g/L glucose, 80 g/L xylose, 10 g/L yeast extract (YE), 2 g/L KH2PO4, 1 g/L MgSO4.7H2O, and 4 g/L KHCO3, and 10 mM of one of the following polyols: erythritol, sorbitol, mannitol, maltitol, or lactitol. After inoculation, the total sugar concentration was about 160 g/L due to dilution by the seed culture. Initial pH was adjusted to 5.5 with 4 N H3PO4 solution. Mixing speed was set at 150 rpm. Fermentation was conducted at 33° C. and pH was not controlled. Samples were taken periodically. Samples were filtered through 0.22 micron filters, and the filtrates were analyzed by HPLC as described in General Methods for compounds including glucose, xylose, ethanol, xylitol, and acetic acid. Samples were diluted with medium (as described in General Methods) and the OD600 was measured to monitor cell growth. […] Cultures with sorbitol or mannitol grew faster and better. After 32 hours, the OD600 were 13.94 and 13.92, respectively, for cultures supplemented with sorbitol or mannitol; meanwhile, the OD600 were 9.48, 9.02, and 9.24, respectively, for cultures supplemented with erythritol, maltitol, or lactitol. […] The presence of sorbitol or mannitol allowed more xylose utilization, without production of xylitol.

ZW658 strain [2] = experiment: 1-liter fermentor, ZW658 on high concentration glucose and xylose with sorbitol or glutamate; format: cell-based, Zymomonas mobilis
Description: as §1, §2, §3
In a sterilized 1-liter fermentor (BIOSTAT® B-DCU system, Sartorius BBI System Inc., Bethlehem, Pa., USA), 50 ml of ZW658 strain seed culture at Optical Density of approximately 5 (measured at 600 nm) was inoculated into 450 ml of aqueous solution containing sugars and medium. The final mixed broth contained 100 g/L glucose, 85.1 g/L xylose, 10 g/L yeast extract (YE), 2 g/L KH2PO4, and 10 mM sorbitol. pH was adjusted to 5.5 with 4 N KOH solution. Mixing speed was set at 150 rpm. Fermentation was conducted at 33° C. and pH 5.5. Samples were taken periodically. Samples were filtered through 0.22 micron filters, and the filtrates were analyzed by HPLC as described in General Methods for compounds including glucose, xylose, ethanol, and acetate. Samples were also diluted with medium (as described in General Methods) and the OD600 was measured to monitor cell growth. […] The by-product xylitol concentration was 0.67 g/L at 29 hr, and increased to 0.95 g/L at 64 hr.
In a sterilized 1-liter fermentor (BIOSTAT® B-DCU system, Sartorius BBI System Inc., Bethlehem, Pa., USA), 50 ml of ZW658 strain seed culture at OD600 of approximately 5 was inoculated into 450 ml of aqueous solution containing sugars and medium. The final mixed broth contained 98.0 g/L glucose, 81.2 g/L xylose, 10 g/L yeast extract (YE), 2 g/L KH2PO4, and 10 mM potassium glutamate. pH was adjusted to 5.5 with 4 N KOH solution. Mixing speed was set at 150 rpm. Fermentation was conducted at 33° C. and pH 5.5. Samples were taken periodically. Samples were filtered through 0.22 micron filters, and the filtrates were analyzed by HPLC as described in General Methods for compounds including glucose, xylose, xylitol, ethanol, and acetic acid. Samples were also diluted with medium (as described in General Methods) and the OD600 was measured to monitor cell growth. […] However, xylose was not well-utilized, cell growth and ethanol production were reduced as compared to that in the presence of sorbitol (Example 4), and xylitol production increased.

[3] = after 29 hours, 100 g/L glucose, 85.1 g/L xylose, 10 mM sorbitol, 33° C., pH 5.5

`OC[C@@H](O)[C@@H](O)[C@H](O)[C@@H](O)CO` [sorbitol] was tested, and the ethanol production (ZW658 strain [1]; mixed sugars) was “ethanol production was also better”, the xylose utilization (ZW658 strain [1]; mixed sugars) was “More xylose was utilized” and the OD600 (ZW658 strain [1]; after 32 hours, total sugar about 160 g/L, 33° C.) was 13.94. For the same compound, the “OD600 cells grew to” value (ZW658 strain [2]; 100 g/L glucose, 85.1 g/L xylose, 10 mM sorbitol, 33° C., pH 5.5) was 13, the “reduction of xylitol with addition of sorbitol” value (ZW658 strain [2]; Examples 4 and 5, with vs without sorbitol) was “about 3 fold” and the ethanol concentration (ZW658 strain [2]; [3]) was 83.9 g/L. It also gave a glucose concentration (ZW658 strain [2]; [3]) of 0 g/L, a xylose concentration (ZW658 strain [2]; [3]) of 2.08 g/L and a by-product xylitol concentration (ZW658 strain [2]; at 29 hr, 10 mM sorbitol) of 0.67 g/L. The by-product xylitol concentration (ZW658 strain [2]; at 64 hr, 10 mM sorbitol) was 0.95 g/L, the “time to complete utilization of 85 g/L xylose” value (ZW658 strain [2]; sugars mixture with 100 g/L glucose, no acetate, in the presence of sorbitol) was no more than 30 h and the effect on growth (ZW658 strain [2]; with vs without 10 mM sorbitol) was “doubled the growth”. For the same compound, the “effect on lag time” value (ZW658 strain [2]; with vs without 10 mM sorbitol) was “significantly reduced the lag time”.
